Experimental findings from article PMC6474336, “Cloning and characterization of a tyrosine decarboxylase involved in the biosynthesis of galanthamine in Lycoris aurea” (PeerJ, 2019) are described below.

The structures appear in SMILES notation.

Assay [1] relates to LaTYDC1. The assay can be described thus: HPLC of tyramine formed. As to conditions: pyridoxal-5-phosphate, 50 mM Tris-HCl pH 8.0, 37 °C; GST fusion; Table 1 labels this row 'Tyramine' and prints error ± 0.12. It counts as biochemical, Lycoris aurea.
Assay [2] concerns LaTYDC1. In words: HPLC of dopamine formed. Format: biochemical, Lycoris aurea. The following applies: pyridoxal-5-phosphate, 50 mM Tris-HCl pH 8.0, 37 °C; GST fusion. An excerpt: HPLC of dopamine formed on LaTYDC1

Take `N[C@@H](Cc1ccc(O)cc1)C(=O)O` [L-tyrosine]: the Km in assay [1] worked out at 602 ± 38 µM.
`N[C@@H](Cc1ccc(O)c(O)c1)C(=O)O` [L-Dopa, 3,4-dihydroxy-L-phenylalanine]: the Km in assay [2] came to 966 ± 79 µM.

By Km is commonly meant the substrate concentration at which the rate is half of its maximum.
